From patent US20230138327A1, “COMPOSITIONS AND METHODS CONTAINING REDUCED NICOTINAMIDE RIBOSIDE FOR PREVENTION AND TREATMENT OF PANCREATIC DISEASES AND CONDITIONS” (SOCIETE DES PRODUITS NESTLE S.A., priority 2020, published 2023)
Where a name gives a salt, the structure may show the parent alone. Values belong to the compound of their own block, whether it stands above or below them.

Tests used:
AML12 cells = assay: Pathway of NRH-induced NAD+ synthesis: intracellular metabolites and pathway inhibitors; format: cell-based; conditions: for Effect of adenosine kinase inhibitor on NRH-mediated NAD+ synthesis: AML12 cells, 5-IT 10 mM for 1 hour prior to NRH, NAD measured 1 hour later
Procedure: FIG. 4. NRH leads to NAD+ biosynthesis through an adenosine kinase dependent path. AML12 cells were treated with an adenosine kinase inhibitor (5-IT; […]) for 1 hour prior to NRH treatment at the doses indicated. Then, 1 hour later, acidic extracts were obtained to measure NAD levels. All values in the figure are expressed as mean+/−SEM of 3 independent experiments. * indicates statistical difference at p<0.05 vs. the respective vehicle treated group.
(§1) Levels of NRH and other NAD-related metabolites in biological samples were obtained by using a cold liquid-liquid extraction using a mixture of methanol:water:chloroform in 5:3:5 (v/v), from which the polar phase was recovered for hydrophilic interaction ultra-high performance liquid chromatography mass spectrometry (UHPLC-MS) analysis. The UHPLC consisted of a binary pump, a cooled autosampler, and a column oven (DIONEX Ultimate 3000 UHPLC+ Focused, Thermo Scientific), connected to a triple quadrupole spectrometer (TSQ Vantage, Thermo Scientific) equipped with a heated electrospray ionisation (H-ESI) source. Of each sample, 2 μL were injected into the analytical column (2.1 mm×150 mm, 5 μm pore size, 200 Å HILICON iHILIC®-Fusion(P)), guarded by a pre-column (2.1 mm×20 mm, 200 Å HILICON iHILIC®-Fusion(P) Guard Kit) operating at 35° C. The mobile phase (10 mM ammonium acetate at pH 9, A, and acetonitrile, B) was pumped at 0.25 mL/min flow rate over a linear gradient of decreasing organic solvent (0.5-16 min, 90-25% B), followed by re-equilibration for a total run time of 30 min. The MS operated in positive mode at 3500 V with multiple reaction monitoring (MRM). The software Xcalibur v4.1.31.9 (Thermo Scientific) was used for instrument control, data acquisition and processing. Retention time and mass detection was confirmed by authentic standards.
A path in which NRH would be converted to NMNH, then to NADH and this would be finally oxidized to NAD+.
In order to understand the exact path by which NRH synthesizes NAD+, we initially evaluated whether NRH, could be transported into the cell by equilibrative nucleoside transporters (ENTs).
(§2) The action of NRH was also NAMPT-independent, based on experiments using FK866, a NAMPT inhibitor. If NRH led to NAD+ synthesis via the formation of NMNH, this hypothetical path would require the phosphorylation of NRH into NMNH. Given the essential and rate-limiting role of NRK1 in NR phosphorylation, we wondered whether the ability of NRH to boost NAD+ levels was NRK1 dependent. To answer this question, we evaluated NRH action in primary hepatocytes from either control or NRK1 knockout (NRK1KO) mice. […] Further, they rule out the possibility that NRH-induced NAD+ […] is driven by NRH oxidation into NR.
Considering the molecular structure of NRH, we reasoned that an alternative nucleoside kinase could be responsible for the phosphorylation of NRH. […] The role of AK in NRH-mediated NAD+ synthesis was confirmed using a second, structurally different, AK inhibitor, ABT-702. Metabolomic analyses further confirmed that upon inhibition of AK, the generation of NMNH, NADH and NAD+ was fully blunted, even if NRH was effectively entering the cell.
As a follow-up step, NMNAT enzymes could catalyze the transition from NMNH to NADH. […] Yet, part of the NRH action remained after gallotannin treatment when NRH was used at maximal doses.

[1] = Stability of NRH or NR spiked in isolated mouse plasma; format: in vitro ADME; conditions: 2 h of incubation
Text: as §1

[2] = Plasma NRH, NR and NAM in mice after oral administration; format: in vivo; conditions: mouse, in vivo, po
Text: as §1
Oral administration of NRH led to very similar results to those observed after IP administration. […] NRH was detectable in plasma 1 h after oral administration. In contrast, NR levels were undetectable at 1 h after NR administration.

[3] = test system: primary hepatocytes from control or NRK1 knockout (NRK1KO) mice; assay: NAD+ levels in primary hepatocytes from control or NRK1 knockout mice; format: cell-based; conditions: 1 hour of treatment
Text: as §2

[4] = Circulating NRH, NR and NAM in mice after intraperitoneal injection; format: in vivo; conditions: mice, IP 500 mg/kg
Text: as §1
(§3) The above results prompted us to test whether NRH could act as an effective NAD+ precursor in vivo. For this, we first intraperitoneally (IP) injected mice with either NR or NRH (500 mg/kg). […] Importantly, NRH was detectable in circulation after IP injection.

mice = assay: Tissue NAD+ levels in mice after intraperitoneal injection; format: in vivo; conditions: IP 500 mg/kg, after 1 h
Procedure: as §3

SMILES: Nc1ncnc2c1c(I)cn2[C@@H]1O[C@H](CO)[C@@H](O)[C@H]1O [5-IT, 5-iodotubercidin]
- Effect of adenosine kinase inhibitor on NRH-mediated NAD+ synthesis (AML12 cells): fully ablated the action of NRH
- Formation of NR and NMN after NRH treatment under AK inhibitor (AML12 cells; metabolomic analyses): prevented the formation of NR and NMN

SMILES: Nc1ncnc2nc(-c3ccc(N4CCOCC4)nc3)cc(-c3cccc(Br)c3)c12 [ABT-702]
- Effect of adenosine kinase inhibitor on NRH-mediated NAD+ synthesis (AML12 cells): confirmed

- Compound levels in isolated mouse plasma [1]: decayed
- Generation of NAM in isolated mouse plasma [1]: increase in NAM
- Circulating NAM after NR treatment relative to NRH treatment ([2]; C57BL/6NTac, 1 h): ~4 fold
- Administered compound in plasma [2]: undetectable
- Circulating NAM [2]: large increases
- NAD+ levels in NRK1KO derived primary hepatocytes [3]: failed to increase NAD+ levels
- NAM levels in circulation [4]: highly increased
SMILES: NC(=O)c1ccc[n+]([C@@H]2O[C@H](CO)[C@H](O)C2O)c1 (stereo partly drawn) [NR, 1-b-D-ribofuranosyl-3-pyridinecarboxamide salt, reference compound]
- Intracellular detection of NRH and NMNH (AML12 cells; 5 minutes after treatment): not
- NAD+ levels in kidney (mice): increased NAD+ levels
- NAD+ levels in liver (mice): increased NAD+ levels
- NAD+ levels in muscle (mice): increased NAD+ levels

SMILES: O=C(OC[C@H]1O[C@@H](OC(=O)c2cc(O)c(O)c(OC(=O)c3cc(O)c(O)c(O)c3)c2)[C@H](OC(=O)c2cc(O)c(O)c(OC(=O)c3cc(O)c(O)c(O)c3)c2)[C@@H](OC(=O)c2cc(O)c(O)c(OC(=O)c3cc(O)c(O)c(O)c3)c2)[C@@H]1OC(=O)c1cc(O)c(O)c(OC(=O)c2cc(O)c(O)c(O)c2)c1)c1cc(O)c(O)c(OC(=O)c2cc(O)c(O)c(O)c2)c1 [gallotannin]
- Effect of NMNAT inhibitor on NAD+ synthesis after NRH treatment (AML12 cells; NRH at maximal doses (0.5 mM), part of NRH action remained): largely compromised NAD+ synthesis
- Effect of NMNAT inhibitor on NRH action (AML12 cells; NRH at submaximal doses): totally blocked
